Legend:
[1] = Highest frequency of moderate liver toxicity observed during clinical trials, expressed as a percentage. [column '% BIOL' in source]; details: human
[2] = Highest frequency of acute liver toxicity observed during clinical trials, expressed as a percentage. [column '% AIGUE' in source]; details: human
[3] = Presence of at least one case with successful reintroduction. [column 'REINT' in source]; details: human
[4] = Comments (NB not yet translated). [column 'COMMENTAIRES' in source]; details: human
[5] = Times to onset, minimal and maximal, observed in the indexed observations. [column 'DELAI' in source]; details: human
[6] = human, serum
[7] = human, serum; remark: listed apart in the source
[8] = human
[9] = human; remark: listed apart in the source
[10] = human; remark: listed apart in the source
[11] = human, serum, 4383 h
[12] = human; remark: listed apart in the source
[13] = human; remark: listed apart in the source
[14] = human; remark: listed apart in the source
[15] = human; remark: listed apart in the source
[16] = human; remark: listed apart in the source
[17] = human; remark: listed apart in the source
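Wherever Hepatotoxicity (association with vascular disease) is given: count of indexed literature references reporting vascular liver injury in humans, e.g. peliosis hepatitis, hepatic veno-occlusive disease or Budd-Chiari syndrome.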
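Wherever Hepatotoxicity (benign tumour) is given: value is a count of indexed literature references citing a benign tumour confirmed by histopathology.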
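Wherever Hepatotoxicity (choleostasis) is given: human cholestatic liver injury, shown by histopathology or by peak ALT or AST elevation over alkaline phosphatase ratio below 2, value counts indexed literature reports.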
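Wherever Hepatotoxicity (chronic liver disease) is given: chronic liver injury confirmed by histopathology or persistently raised serum aminotransferase activity beyond 6 months, value given as the count of indexed literature references.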
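Wherever Hepatotoxicity (cirrhosis) is given: value is a count of indexed literature references reporting cirrhosis confirmed by histopathology.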
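Wherever Hepatotoxicity (cytolytic) is given: human cytolytic liver injury, shown by histopathology or by a ratio above 5 of peak ALT or AST elevation to alkaline phosphatase elevation, value counts indexed references.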
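Wherever Hepatotoxicity (granulomatous hepatitis) is given: value is a count of indexed literature references reporting granulomatous liver disease confirmed by histopathology.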
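Wherever Hepatotoxicity (malignant tumour) is given: malignant tumour confirmed by histopathology, value gives the count of indexed literature references reporting it.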
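Wherever Hepatotoxicity (severe hepatitis) is given: human clinical data: severe hepatitis, meaning potentially life-threatening liver failure or clinically observed cases, the value counts how many indexed literature references report it.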
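Wherever Hepatotoxicity (steatosis) is given: steatosis confirmed by histopathology, value is the count of indexed references.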

| SMILES | Hepatotoxicity (moderate) [1] [%] | Hepatotoxicity (acute) [2] [%] | Hepatotoxicity (successful reintroduction) [3] | Hepatotoxicity (comment) [4] | Hepatotoxicity (time to onset) [5] | Hepatotoxicity (moderate) [6] | Hepatotoxicity (acute) [7] | Hepatotoxicity (cytolytic) [8] | Hepatotoxicity (choleostasis) [9] | Hepatotoxicity (severe hepatitis) [10] | Hepatotoxicity (chronic liver disease) [11] | Hepatotoxicity (cirrhosis) [12] | Hepatotoxicity (granulomatous hepatitis) [13] | Hepatotoxicity (association with vascular disease) [14] | Hepatotoxicity (steatosis) [15] | Hepatotoxicity (malignant tumour) [16] | Hepatotoxicity (benign tumour) [17] | Hepatotoxicity (moderate) ([1]; Liver) [%] | Hepatotoxicity (acute) ([2]; Liver) [%] | Hepatotoxicity (severe hepatitis) ([10]; Liver) | other results |
| --- | --- | --- | --- | --- | --- | --- | --- | --- | --- | --- | --- | --- | --- | --- | --- | --- | --- | --- | --- | --- | --- |
| CCOC(=O)/C=C(C)/C=C/C=C(C)/C=C/c1c(C)cc(OC)c(C)c1C [ETRETINATE] | 33 | 1.5 | yes | I/METHOTREXATE CHOLANGITE | 1 week - 1 year | 31 | 20 | 12 | 6 | 2 | 7 | 1 | 1 | 0 | 5 | 0 | 0 |  |  |  |  |
| NC(N)=Nc1nc(CSCCC(N)=NS(N)(=O)=O)cs1 [FAMOTIDINE] |  |  | yes | RC/CIMETIDINE | 3 days - 3 weeks | 12 | 5 |  |  |  | 0 | 0 |  | 0 | 0 | 0 | 0 | 2.8 | 0 | 0 | Hepatotoxicity (cytolytic) ([8]; Liver): 4; Hepatotoxicity (choleostasis) ([9]; Liver): 0; Hepatotoxicity (granulomatous hepatitis) ([13]; Liver): 0 |
| OCCN1CCN(CCCN2c3ccccc3Sc3ccc(C(F)(F)F)cc32)CC1 [FLUPHENAZINE] | 0 | 1 | yes | RC/HALOPERIDOL | 2 weeks | 2 | 5 | 1 | 4 | 0 | 0 | 0 | 0 | 0 | 0 | 0 | 0 |  |  |  |  |
| CC(CCc1ccccc1)NCC(O)c1ccc(O)c(C(N)=O)c1 (centres undefined) [LABETALOL] | 20.5 | 0.9 | yes | AC_ANTI-N | 3 weeks - 6 months | 5 | 6 | 6 | 0 | 4 | 0 | 0 | 0 | 0 | 0 | 0 | 0 |  |  |  |  |
| Nc1ccn([C@@H]2CS[C@H](CO)O2)c(=O)n1 [LAMIVUDINE] |  |  | yes | REACTIVATION_HVB REACTIVATION_HVC | 10 days - 3 years | 15 | 30 | 26 | 1 |  | 1 | 0 | 0 | 0 | 13 | 0 | 0 | 44 | 12.5 | 15 |  |
| c1ccc([C@H]2CN3CCSC3=N2)cc1 [LEVAMISOLE] |  |  | yes | I/FLUOROURACIL | 1 month - 1 year | 11 | 0 |  |  |  | 0 | 0 |  | 0 | 6 | 0 | 0 | 61.2 | 0 | 0 | Hepatotoxicity (cytolytic) ([8]; Liver): 0; Hepatotoxicity (choleostasis) ([9]; Liver): 0; Hepatotoxicity (granulomatous hepatitis) ([13]; Liver): 0 |
| C[C@]12CCC(=O)C=C1CC[C@@H]1[C@@H]2CC[C@@]2(C)[C@H]1CC[C@]2(C)O [METHYLTESTOSTERONE] | 32 | 0 | yes | ANGIOSARCOME CHOLESTASE_PROLONGEE CHOLANGITE #CBP PELIOSE | 1 week - 24 years | 4 | 30 | 2 | 21 | 1 | 0 | 2 | 0 | 4 | 0 | 10 | 6 |  |  |  |  |
| COCCc1ccc(OCC(O)CNC(C)C)cc1 (centres undefined) [METOPROLOL] | 32 | 0 | yes | ENCEPHALOPATHIE | 5 days - 17 days | 3 | 1 | 1 | 0 | 0 | 0 | 0 | 0 | 0 | 0 | 0 | 0 |  |  |  |  |
| CN1Cc2c(N)cccc2C(c2ccccc2)C1 (centres undefined) [NOMIFENSINE] | 0 | 0 | yes | RC/MIANSERINE | 3 days - 3 months | 6 | 11 | 8 | 6 | 0 | 0 | 0 | 5 | 0 | 0 | 0 | 0 |  |  |  |  |
| CCN1CCN(C(=O)N[C@@H](C(=O)N[C@@H]2C(=O)N3[C@@H]2SC(C)(C)[C@@H]3C(=O)O)c2ccccc2)C(=O)C1=O [PIPERACILLIN] | 25.6 | 0.2 | yes | CHOLANGITE | 2 weeks | 14 | 4 | 1 | 3 | 0 | 0 | 0 | 0 | 0 | 0 | 0 | 0 |  |  |  |  |
| CC[C@H](C)C(=O)O[C@H]1C[C@H](O)C=C2C=C[C@H](C)[C@H](CC[C@@H](O)C[C@@H](O)CC(=O)O)[C@H]21 [PRAVASTATIN] |  |  | yes | AC_ANTI-N/-MF | 1 week - 20 weeks | 50 | 7 | 3 | 3 |  | 0 | 0 | 0 | 0 | 1 | 0 | 0 | 22.5 | 1.1 | 0 |  |
| Cc1ncc(CSSCc2cnc(C)c(O)c2CO)c(CO)c1O [PYRITINOL] | 1.4 | 0 | yes | CHOLESTASE_PROLONGEE | 1 day - 2 months | 1 | 6 | 1 | 4 | 1 | 0 | 0 | 0 | 0 | 1 | 0 | 0 |  |  |  |  |

— ChEMBL document CHEMBL3137667, “[Drug-induced liver injury; fourteenth updated edition of the bibliographic database of liver injuries and related drugs]” (Gastroenterol Clin Biol, 2004)
